In one data set the test system is HCT-116 xenograft. Kind of data set: Subcutaneous HCT-116 xenograft model, tumor volume. Format: in vivo, nude mice. The conditions noted are these: Groups 2-6 of Table 8 (Compound 42 1 and 5, Q3 5 and 15, F 25 mg/kg); IP daily for 20 days; 28 days; vs control. Here is the method:
The efficacy of Compound 42, Compound F, and Compound Q3 were evaluated in the treatment of subcutaneous HCT-116 xenograft model in nude mice.
Cell Culture: HCT-116 tumor cell lines were maintained in vitro as a monolayer culture in DMEM medium supplemented with 10% fetal bovine serum at 37° C. in an atmosphere of 5% CO2 in air. The tumor cells were routinely subcultured twice weekly by trypsin-EDTA treatment (0.05% Trypsin-EDTA) and 1:4 split: The cells in an exponential growth phase were harvested and counted for tumor inoculation.
Tumor Inoculation: Each, mouse was inoculated subcutaneously at the flank region with HCT-1.16 cells (1.0×106) in 0.1 ml of 1×PBS mixed with Matrigel (1:1) for tumor development. The day Xenotransplantation was performed is denoted as day 0.
Thirty (30) animals with approx 100-150 mm^3 tumors were selected for HCT-116 follow up experiment and randomly placed Into Groups 1, 2, […], 4, 5, and 6 as shown in Table 8.
Group Assignment: Before grouping and treatment, all animals were weighed and fee tumor volumes were confirmed (100-150 mm^3) using electronic caliper. Since the tumor volume can affect fee effectiveness of any given treatment mice into groups using randomized block design as following: First the experimental animals were divided into homogeneous blocks based on their tumor volume. Secondly, within each block, randomization of experimental animals to different groups By using randomized block design to assign experimental animals, we ensure that each animal has the same probability of being assigned to any given treatment groups and therefore systematic error is minimized.
(§1) Treatments were initiated when turner volume reached 100-150 mm^3. Treatments started on Day 5. Test compounds were administered intraperitoneally (II′) in 10 mg/mL solution comprising 10% N,N-dimethyl acetamide, 15% macrogol 15 hydroxy stearate, polyethylene glycol-15-hydroxystearate, and 75% aqueous hydroxypropyl-beta-cyclodextrin.
(§2) Observation and data collection: After tumor cells inoculation, the animals were checked daily for morbidity and mortality. At the time of routine monitoring, the animals were checked for any adverse effects of tumor growth and treatments on normal behavior such as mobility, visual estimation of food and water consumption, body weight gain/loss, eye/hair matting and any other abnormal effects, Death and observed clinical signs were recorded, per […] IACUC. Tumor volumes were measured every 3-4 days in two dimensions using an electronic caliper, sad the volume data are expressed in, mm3 using the formula: V=0.5 a×b^2 where a and b are fee long and short diameters of the tumor, respectively. Dosing and tumor volume measurement procedures were conducted in a Laminar Flow Cabinet according to Altogen Labs IACUC regulations.
Statistics: Summary statistics, the mean and the standard error of the mean (SEM), are provided for the tumor volume of each group at each time point. Statistical analysis of difference in tumor volume among the groups and the analysis of drug interaction were conducted on the data obtained after the final dose.

Data set [1] is described as follows: HCT-116 xenograft model, body weight and adverse events. Format: in vivo. As to conditions: Groups 2-6 of Table 8; IP daily for 20 days. The protocol: as §1, §2
Body weight loss daring fee study: Sacrifice fee mouse when one measurement of body weight loss (BWL)>20% (only for control animals). Animal research associated wife this study was conducted under Altogen Labs IACUC regulatory space. Altogen Labs IACUC guidelines were followed in case of BWL and any other conditions.

Another data set deals with HCT-116. The data set can be described thus: Senescence quantification (SA-βGal), Example 6A. The data set is classed as cell-based. The conditions noted are these: Compound 42 250 nM, Palbociclib 1 μM. The protocol: Day 1: 96 well plate was seeded with 4000 cells/well and incubated for 24 hours at 37° C. […]
Day 6: Senescence cells histochemical Staining Kit (Sigma) was used. The growth medium form the cells were aspirated then washed twice with fresh […]. […] 100 μL filtered Fixation Buffer was added per well and the plate was incubated for 6-7 minutes at room temperature. Then, the cells were rinsed 3 times with PBS. 50 μL of the Staining Mixture was added per well and incubated at 37° C. overnight without CO2 (staining is pH dependent). After staining, the Staining Mixture was removed, PBS and Hoechst dye (1 μg/mL) were added. Ten images were taken with Epifluorescence Microscope using the blue filter and 10 images were taken in the brightfield. The images were used to count the total cell number—the positive blue cells were counted in the bright field. The percentage of cells expressing β-galactosidase was calculated.
Method 1: Mammalian β-Galactosidase Assay Kit (Thermo Scientific) was used. […] The cells were washed once with PBS. 100 μL of the β-Galactosidase Assay Reagent was added to each well and the plate was covered and incubated for 30 minutes at 37° C. without CO2. The absorbance was measured at 405 nm. […]
Method 2: Assay of a portion of the lysate. […] 25 μL of lysate was removed and use it for Protein Quantification (BCA). […]
Senescence was quantified according to Example 4. […]

Data set [2] concerns cyclin D1. Kind of data set: Western blot of Cyclin D1, Example 6B. The data set is classed as cell-based. As to conditions: 250 nM, 24 h, compared to control (DMSO). The protocol:
Cells were plated at a density of 3×10^5 cells/well for 24 hrs. Representative compounds or DMSO alone was then added to the wells for 24 h at 250 nM (note: Compound F was administered at a concentration of 2 μM). Cells were trypsinised, pelleted, washed ×3 in PBS, and lysed using a 2% SDS lysis solution (Sigma—05030).
Western blot analysis was then carried out to look at Cyclin D1 (Abeam—ab134175), PRK8 (Sigma—P6248), Rb (Abeam—[…]) and GAPDH (Sigma—G9545) levels.
In general terms: Immunoblotting shows a protein as a band on a membrane.

For data set [3], the system named is cyclin D1. Kind of data set: Western blot of Cyclin D1 in Mino cells, Example 6C. The conditions noted are these: compared to control (DMSO). Format: cell-based. The protocol:
Mino cells have a chromosomal translocation of the Cyclin D gene that increases expression of cyclin D1. Western blot analysis was then carried out to look at Cyclin D1 (Abeam—ab134175) and GAPDH (Sigma—G9545) levels after treatment with Compounds F, S3, 42, and 146.

Another data set relates to ubiquitinated proteins. Kind of data set: Mechanistic study: Ub (FK-2) western blot. Format: cell-based. As to conditions: ES-2; epoxomicin 60 nM; 18 hours. Here is the method: In order to establish that the decrease in Cyclin D seen after Compound 42 treatment is due to proteasomal degradation, ES-2, ovarian cancer cell line was treated with Compound 42 (250 nM) in the presence or absence of epoxomicin, a specific inhibitor of the proteasome (60 nM) for 18 hours. Following the treatment, western blotting for Cyclin D (FIG. 10A), Ub (FK-2) (FIG. 10B), and GAPDH control (bottom blot, below FIGS. 10A and 10B) was performed. Epoxomicin is a specific inhibitor of the proteasome.

Structures are written as SMILES.

In the case of `Cc1ccccc1C(=O)Nc1nc(NC(=O)c2ccccc2C)n(-c2ccc(Cl)cc2)n1` [Compound Q3], the “tumor growth (tumor volume)” value with HCT-116 xenograft is listed as “reduce the tumor growth”. The “weight loss or adverse events” value in data set [1] is reported as “No weight loss or any adverse events”.
`CC(=O)c1c(C)c2cnc(Nc3ccc(N4CCNCC4)cn3)nc2n(C2CCCC2)c1=O` [palbociclib, reference compound]: in the data set with HCT-116, the “apoptosis or other cell death” value is “No apoptosis or other cell death was observed”.
Take `Cc1ccccc1C(=O)Nc1nc(-c2ncccc2C)nn1-c1ccccc1` [Compound S3]: the “Cyclin D1 expression” value in the data set with cyclin D1 [2] (HCT-116) and in the data set on cyclin D1 [2] (TOV-112) was “reduction of Cyclin D1 expression” each time. For the same molecule, the “cyclin D expression” value in the data set with cyclin D1 [3] is recorded as “appreciably reduce Cyclin D expression”.
Take `Cc1ccccc1C(=O)Nc1nc(-c2ncccc2C)nn1-c1cccc(F)c1` [Compound 146]: the “Cyclin D1 expression” value in the data set with cyclin D1 [2] (HCT-116) and with cyclin D1 [2] (TOV-112) was “reduction of Cyclin D1 expression” in each case. Also, the “cyclin D expression” value in the data set with cyclin D1 [3] is recorded as “appreciably reduce Cyclin D expression”.
`CC[C@H](C)[C@H](NC(=O)[C@H]([C@@H](C)CC)N(C)C(C)=O)C(=O)N[C@H](C(=O)N[C@@H](CC(C)C)C(=O)[C@@]1(C)CO1)[C@@H](C)O` [epoxomicin]: the “ubiquitinated proteins (FK-2 antibody)” value with ubiquitinated proteins is recorded as “overall increase of ubiquitinated proteins”.

(Values after US20210244712A1, “METHODS FOR TREATING PATIENTS WITH CANCER HAVING DEFECTS IN CYCLIN D REGULATION” (NysnoBio Ireland DAC, priority 2018, published 2021).)
